Values of other authors in patent US10646464B2, “Methods for treating cancer” (Boston Biomedical, Inc., priority 2017, dated 2020).
pIC50: −log10 of the molar value.

Columns and labels:
Stat3 pathway = details: read-out: inhibits Stat3 pathway activity, cellular IC50
[1] = system: patients with advanced, previously treated pancreatic adenocarcinoma; details: weekly paclitaxel alone, previously reported

pIC50 (Stat3 pathway)	SMILES	median overall survival (mOS) [1]
~6.60	CC(=O)c1cc2c(o1)C(=O)c1ccccc1C2=O [2-acetylnaphtho[2,3-b]furan-4,9-dione]	
	CC(=O)O[C@H]1C(=O)[C@@]2(C)[C@H]([C@H](OC(=O)c3ccccc3)[C@]3(O)C[C@H](OC(=O)[C@H](O)[C@@H](NC(=O)c4ccccc4)c4ccccc4)C(C)=C1C3(C)C)[C@]1(OC(C)=O)CO[C@@H]1C[C@@H]2O [paclitaxel]	about 17.5 weeks
